# Laboratory results taken from ChEMBL document CHEMBL1770129, “Total synthesis of solamargine” (Bioorg Med Chem Lett, 2011).
# Key:
# [1] = Cytotoxicity against human HL-7702 by MTT assay; settings: L02
# HepG2 = test: Cytotoxicity against human HepG2 cells by MTT assay; assay type: functional, cell-based
# K562 = test: Cytotoxicity against human K562 cells by MTT assay; assay type: functional, cell-based
# HeLa = test: Cytotoxicity against human HeLa cells by MTT assay; assay type: functional, cell-based
# A549 = test: Cytotoxicity against human A549 cells by MTT assay; assay type: functional, cell-based
# HCT-116 = test: Cytotoxicity against human HCT116 cells by MTT assay; assay type: functional, cell-based
# [2] = Cytotoxicity against human U87 cells by MTT assay; assay type: functional, cell-based, U-87MG ATCC; settings: U-87 MG
# MCF7 = test: Cytotoxicity against human MCF7 cells by MTT assay; assay type: functional, cell-based
# H9c2 = test: Cytotoxicity against rat H9c2 cells by MTT assay; assay type: cell-based
compound,measurement,setting,value
C[C@@H]1CC[C@@]2(NC1)O[C@H]1C[C@H]3[C@@H]4CC=C5C[C@@H](O[C@@H]6O[C@H](CO)[C@@H](O[C@@H]7O[C@@H](C)[C@H](O)[C@@H](O)[C@H]7O)[C@H](O)[C@H]6O[C@@H]6O[C@@H](C)[C@H](O)[C@@H](O)[C@H]6O)CC[C@]5(C)[C@H]4CC[C@]3(C)[C@H]1[C@@H]2C [SOLAMARGINE],IC50,[1],13.5 µM
same,IC50,HepG2,2.5 µM
same,IC50,K562,5.2 µM
same,IC50,HeLa,6 µM
same,IC50,A549,8 µM
same,IC50,HCT-116,3.8 µM
same,IC50,[2],3.2 µM
same,IC50,MCF7,2.1 µM
same,IC50,H9c2,> 20 µM
